Measurements as given in US20210052532A1, “COMPOSITIONS AND METHODS FOR TREATMENT OF INSULIN RESISTANCE” (TEMPLE UNIVERSITY - OF THE COMMONWEALTH SYSTEM OF HIGHER …, priority 2018, published 2021).

Key:
[1] = test system: adipocyte glucose uptake; assay: Overnutrition-induced adipocyte glucose uptake impairment; type: cell-based; conditions: adipocytes
Excerpt: (§1) Without wishing to be bound by any theory, compounds of Formula I-III form adducts with reactive aldehydes such as 4-HNE, thereby diverting 4-HNE from damaging proteins such as GLUT-4, by carbonylation. […] Restoration of GLUT-4 function results in enhancement or restoration of adipocyte insulin sensitivity and the resumption or enhancement of glucose uptake.

[2] = Adduct formation with the reactive aldehyde 4-HNE; conditions: diverts 4-HNE from damaging GLUT-4 by carbonylation
Excerpt: as §1

[3] = test system: GLUT4-SNAP protein; assay: Formation of K264-HNE GLUT4 adduct in 3T3-L1 cells overexpressing GLUT4-SNAP (MRM); type: cell-based; conditions: 4-HNE 20 μM for 4 hr, FIG. 3
Excerpt: FIG. 3 provides typical MRM data showing an increase in the transitions of HNE-induced K264-HNE adduct (left panel) which were used to calculate the amounts of carbonylated GLUT4 (right panel). Four transitions of the GLUT4 peptide found in humans are shown. The sequence of the carbonylated GLUT4 peptide LTGWADVSGVLAELKDEK-4HNE (SEQ ID NO:1) is depicted.
Certain conditions such as overnutrition can lead to oxidative stress, and the generation of reactive aldehydes such as 4-HNE, which react with cysteine, lysine and histidine residues of proteins via Michael addition and Schiff base formation. 4-HNE can form HNE-Michaels adducts on GLUT4, the major insulin-facilitated glucose transporter in adipose tissue. 3T3-L1 adipocytes retrovirally transduced to overexpress the GLUT4-SNAP protein formed a K264-HNE GLUT4 adduct upon treatment with 4-HNE. The same K264-HNE GLUT4 adduct is elevated in the fat tissue of human pre-diabetic and diabetic individuals.
GLUT4 carbonylations impair its function. To directly link the function impairment due to GLUT4 carbonylations to insulin resistance in vitro, GLUT4-SNAP fusion construct were generated and retroviral transduction in 3T3-L1 adipocytes were performed to overexpress the GLUT4-SNAP protein. […] The glucose uptake was measured by an MRM method.

[4] = test system: 3T3-L1 adipocytes; assay: Insulin-stimulated glucose uptake in 3T3-L1 adipocytes, measured by MRM; type: cell-based; conditions: 3T3-L1 adipocytes treated 4 hr with 20 M (so in the source) of 4-HNE or H2O2 or both, then 100 nM insulin 60 min; FIG. 4 legend: 4-HNE 20 μM, H2O2 100 μM
Protocol: FIG. 4 graphically depicts glucose transport impairment in 3T3-L1 cells when exposed to 4-HNE (20 μM) and/or H2O2 (100 μM) for 4 hr.
(§2) GLUT4 carbonylations impair its function. To directly link the function impairment due to GLUT4 carbonylations to insulin resistance in vitro, GLUT4-SNAP fusion construct were generated and retroviral transduction in 3T3-L1 adipocytes were performed to overexpress the GLUT4-SNAP protein. Twenty-four hours after the transduction, the cells were treated with and without 20 μM of 4-HNE for an additional 4h. This 4-HNE dose was chosen because it was similar to the physiological levels and was non-toxic. […] 3T3-L1 adipocytes were treated with either 20 M of 4-HNE or H2O2 or the combination of both for 4 hr and were then stimulated with 100 nM insulin for 60 min. The glucose uptake was measured by an MRM method.

[5] = test system: 3T3-L1 adipocytes; assay: Toxicity of the 4-HNE dose to the treated cells; type: cell-based; conditions: 20 μM of 4-HNE, 4h, transduced 3T3-L1 adipocytes
Protocol: as §2

SMILES	effect on glucose uptake impairment [1]	adduct formation with 4-HNE [2]	formation of the K264-HNE adduct [3]	glucose uptake reduced / decrease in the glucose uptake [4]	toxicity of dose [5]
Cl.Cl.NCCCNCCCC[C@H](N)C(=O)O [Example 4, (S)-2-amino-6-((3-aminopropyl)amino)hexanoic acid dihydrochloride]	reversing overnutrition-induced glucose uptake impairment	forms an adduct with 4-HNE	–	–	–
CCCCCC(O)/C=C/C=O (stereo not drawn) [Example 4-HNE, 4-hydroxynonenal]	–	–	induced the formation of the K264-HNE adduct	32%	non-toxic
OO [Example H2O2]	–	–	–	66%	–
